Among the data in patent US11161830B2, “4-pyridone compound or salt thereof, and pharmaceutical composition and formulation including same” (priority 2017, dated 2021) are IC50 values, retold here.

Read-outs that look alike come from different tables or passages of the source.

The term IC50 denotes the concentration that inhibits the measured activity by half.

The subject of the test is HBV (genotype CAT). As to the kind of experiment: Test Example 2-2: anti-HBV assay in PXB-cells (fresh human hepatocytes). To be noted: Hepatitis B virus, Hepatocyte. Format: cell-based. The protocol:
Using fresh human hepatocytes (PXB-cells, manufactured by PhenixBio Co., Ltd.) collected from a PXB mouse (a chimeric mouse with human hepatocytes), the anti-HBV activity of the representative compounds was evaluated in the following procedure.
The following was used as a medium:
DMEM (manufactured by Sigma)+0.25 μg/mL insulin (manufactured by Wako)+1% penicillin/streptomycin. (manufactured by Sigma)+20 mmol/L HEPES (manufactured by Sigma)+15 μg/mL L-proline (manufactured by Sigma)+50 nmol/L dexamethasone (manufactured by Sigma)+5 ng/mL EGF (manufactured by Peprotech)+0.1 mmol/L ascorbic acid 2-phosphate (manufactured by Wako)+10% FBS+2% DMSO
Each of the test compounds) was further added to the medium to prepare a test solution containing each of the test compounds at various concentrations.
(1) PXB-cells seeded at a seeding density of 2.1×10^5 cells/cm^2 in a 96-well microliter plate were incubated in a 5% CO2 incubator at 37° C. until a day on which the cells were infected.
(2) A HBV (genotype CAT) prepared by transfecting an HBV plasmid into an HepG2 cell was suspended in the medium containing 4% PEG-8000, and added to the plate of (1) at about 30 copies/cell such that the PXB cells were infected (100 μL/well), and the plate was incubated in a 5% CO2 incubator at 37° C. for 1 day.
(3) The culture supernatant on day 1 post infection was removed and the cells were washed three times with DMEM containing 10% FBS and 1% penicillin/streptomycin. Then, the medium was added to the plate (100 μL/well) and the plate was incubated in a 5% CO2 incubator at 37° C. for 1 day.
(4) The culture supernatant on day 2 post infection was removed and the cells were washed three times with DMEM containing 10% FBS and 1% penicillin/streptomycin. Then, the medium was added to the plate (100 μL/well) and the plate was incubated in a 5% CO2 incubator at 37° C. for 5 days.
(5) The culture supernatant on day 7 post infection was removed, the medium was added to the plate (100 μL/well), and the plate was incubated in a 5% CO2 incubator at 37° C. for 5 days.
(6) The culture supernatant on day 12 post infection was removed, the medium was added to the plate (100 μL/well), and the plate was incubated in a 5% CO2 incubator at 37° C. for 5 days.
(7) The culture supernatant on day 17 post infection was removed, the test solution was added to the plate (100 μL/well), and the plate was incubated in a 5% CO2 incubator at 37° C. for 5 days. As a control without the compound added, the medium was added to the plate (100 μL/well) and the plate was incubated in a 5% CO2 incubator at 37° C. for 5 days.
(8) The culture supernatant on day 22 post infection was removed, the test solution was added to the plate (100 μL/well), and the plate was incubated in a 5% CO2 incubator at 37° C. for 5 days. As a control without the compound added, the medium was added to the plate (100 μL/well) and the plate was incubated in a 5% CO2 incubator at 37° C. for 5 days.
(9) The culture supernatant on day 27 post infection was removed, the test solution was added to the plate (100 μL/well), and the plate was incubated in a 5% CO2 incubator at 37° C. for 5 days. As a control without the compound added, the medium was added to the plate (100 μL/well) and the plate was incubated in a 5% CO2 incubator at 37° C. for 5 days.
(10) The culture supernatant on day 32 post infection was collected.
(11) The collected culture supernatant on day 32 post infection was treated with a mixture of Buffer AL (manufactured by QIAGEN) and Proteinase K (manufactured by Invitrogen). The amount of HBV-DNA in the obtained solution was absolutely quantified by a real-time PCR method. In addition, the amount of HBsAg in the culture supernatant was absolutely quantified by chemiluminescent enzyme immunoassay using Lumipulse (registered trademark) HBsAg-HQ (manufactured by Fujirebio Inc.). A relative viral load (%) with respect to a control without the compound added was each calculated. […]

On to `COCCN1CCN(c2nc3ccc(-n4cc(C(=O)O)c(=O)cc4-c4ccc(N5CCCC5)c(Cl)c4)cc3s2)CC1` [Example 6-5, 6-(3-chloro-4-(pyrrolidin-1-yl)phenyl)-1-(2-(4-(2-methoxyethyl)piperazine-1-yl)benzo[d]thiazol-6-yl)-4-oxo-1,4-dihydropyridine-3-carboxylic acid], for which the 50% inhibitory concentration (IC50) was 76 nM (read-out: IC50 HBV-DNA, PXB-cells infected with HBV genotype CAT, culture supernatant on day 32 post infection) and 61 nM (read-out: IC50 HBsAg, PXB-cells infected with HBV genotype CAT, culture supernatant on day 32 post infection).
